Results from publication PMC10364322, “Evaluation of chronic drug-induced electrophysiological and cytotoxic effects using human-induced pluripotent stem cell-derived cardiomyocytes (hiPSC-CMs)” (Frontiers in Pharmacology, 2023).
Like-named read-outs stand apart in the source and are kept apart here.

Tested on: hiPSC-CMs (iCell-Cardiomyocytes^2)
In short: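 Monolayers of hiPSC-CMs on fibronectin-coated MEA plates, 50 K/well, kept at 37°C, 5% CO2; compounds added in 0.1% final DMSO after 5-min baseline. Field potential and impedance parameters expressed as mean ± SD percent change from baseline; arrhythmic events noted; cytotoxicity fluorescence normalized to DMSO, Kruskal-Wallis.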

BR (beating rate), % change from baseline (0.1 µM, 2h): 7±3% | Beating below threshold, number of observations/total well numbers (0.1 µM, 2h): 0/5 | Cessation of beating, number of observations/total well numbers (0.1 µM, 2h): 0/5 | EAD, number of observations/total well numbers (0.1 µM, 2h): 0/5 | FPD (field-potential duration), % change from baseline (0.1 µM, 2h): -0.9±3.5% | FPDc (field-potential duration corrected by beat-rate), % change from baseline (0.1 µM, 2h): 1.2±2.7% | Flat T-wave-like, number of observations/total well numbers (0.1 µM, 2h): 0/5 | BR (beating rate), % change from baseline (0.1 µM, 24h): 41±12 % | Beating below threshold, number of observations/total well numbers (0.1 µM, 24h): 0/5 | Cessation of beating, number of observations/total well numbers (0.1 µM, 24h): 0/5 | EAD, number of observations/total well numbers (0.1 µM, 24h): 0/5 | FPD (field-potential duration), % change from baseline (0.1 µM, 24h): -18.2±8.6 % | FPDc (field-potential duration corrected by beat-rate), % change from baseline (0.1 µM, 24h): -8.8±6.9 % | Flat T-wave-like, number of observations/total well numbers (0.1 µM, 24h): 0/5 | BR (beating rate), % change from baseline (0.1 µM, 48h): 26±8 % | Beating below threshold, number of observations/total well numbers (0.1 µM, 48h): 0/5 | Cessation of beating, number of observations/total well numbers (0.1 µM, 48h): 0/5 | EAD, number of observations/total well numbers (0.1 µM, 48h): 0/5 | FPD (field-potential duration), % change from baseline (0.1 µM, 48h): -24.4±9.8 % | FPDc (field-potential duration corrected by beat-rate), % change from baseline (0.1 µM, 48h): -18.8±8.7 % | Flat T-wave-like, number of observations/total well numbers (0.1 µM, 48h): 0/5 | BR (beating rate), % change from baseline (0.1 µM, 72h): 22±6 % | Beating below threshold, number of observations/total well numbers (0.1 µM, 72h): 0/5 | Cessation of beating, number of observations/total well numbers (0.1 µM, 72h): 0/5 | EAD, number of observations/total well numbers (0.1 µM, 72h): 0/5 | FPD (field-potential duration), % change from baseline (0.1 µM, 72h): -25±8.7 % | FPDc (field-potential duration corrected by beat-rate), % change from baseline (0.1 µM, 72h): -20.4±8.9 % | Flat T-wave-like, number of observations/total well numbers (0.1 µM, 72h): 1/5 | BR (beating rate), % change from baseline (0.1 µM, 96h): -7±13% | Beating below threshold, number of observations/total well numbers (0.1 µM, 96h): 0/5 | Cessation of beating, number of observations/total well numbers (0.1 µM, 96h): 0/5 | EAD, number of observations/total well numbers (0.1 µM, 96h): 0/5 | FPD (field-potential duration), % change from baseline (0.1 µM, 96h): -11.7±0.4 % | FPDc (field-potential duration corrected by beat-rate), % change from baseline (0.1 µM, 96h): -16.2±0.1 % | Flat T-wave-like, number of observations/total well numbers (0.1 µM, 96h): 3/5 | time point from which cessation of beating occurred in all wells (0.3 µM): 48 h | BR (beating rate), % change from baseline (0.3 µM, 2h): 2±2% | Beating below threshold, number of observations/total well numbers (0.3 µM, 2h): 0/5 | Cessation of beating, number of observations/total well numbers (0.3 µM, 2h): 0/5 | EAD, number of observations/total well numbers (0.3 µM, 2h): 0/5 | FPD (field-potential duration), % change from baseline (0.3 µM, 2h): 2.2±0.8% | FPDc (field-potential duration corrected by beat-rate), % change from baseline (0.3 µM, 2h): 2.8±1.1% | Flat T-wave-like, number of observations/total well numbers (0.3 µM, 2h): 0/5 | BR (beating rate), % change from baseline (0.3 µM, 24h): 24±8 % | Beating below threshold, number of observations/total well numbers (0.3 µM, 24h): 0/5 | Cessation of beating, number of observations/total well numbers (0.3 µM, 24h): 0/5 | EAD, number of observations/total well numbers (0.3 µM, 24h): 0/5 | FPD (field-potential duration), % change from baseline (0.3 µM, 24h): -21±2.9 % | FPDc (field-potential duration corrected by beat-rate), % change from baseline (0.3 µM, 24h): -14.6±1.7 % | Flat T-wave-like, number of observations/total well numbers (0.3 µM, 24h): 2/5 | BR (beating rate), % change from baseline (0.3 µM, 48h): 40±8 % | Beating below threshold, number of observations/total well numbers (0.3 µM, 48h): 0/5 | Cessation of beating, number of observations/total well numbers (0.3 µM, 48h): 2/5 | EAD, number of observations/total well numbers (0.3 µM, 48h): 0/5 | Flat T-wave-like, number of observations/total well numbers (0.3 µM, 48h): 3/5 | BR (beating rate), % change from baseline (0.3 µM, 72h): 39±0 % | Beating below threshold, number of observations/total well numbers (0.3 µM, 72h): 0/5 | Cessation of beating, number of observations/total well numbers (0.3 µM, 72h): 4/5 | EAD, number of observations/total well numbers (0.3 µM, 72h): 0/5 | Flat T-wave-like, number of observations/total well numbers (0.3 µM, 72h): 1/5 | Beating below threshold, number of observations/total well numbers (0.3 µM, 96h): 0/5 | Cessation of beating, number of observations/total well numbers (0.3 µM, 96h): 5/5 | EAD, number of observations/total well numbers (0.3 µM, 96h): 0/5 | Flat T-wave-like, number of observations/total well numbers (0.3 µM, 96h): 0/5 | time point from which cessation of beating occurred in all wells (1 µM): 48 h | BR (beating rate), % change from baseline (1 µM, 2h): 3±2% | Beating below threshold, number of observations/total well numbers (1 µM, 2h): 0/5 | Cessation of beating, number of observations/total well numbers (1 µM, 2h): 0/5 | EAD, number of observations/total well numbers (1 µM, 2h): 0/5 | FPD (field-potential duration), % change from baseline (1 µM, 2h): 2.8±3.4% | FPDc (field-potential duration corrected by beat-rate), % change from baseline (1 µM, 2h): 4.2±3% | Flat T-wave-like, number of observations/total well numbers (1 µM, 2h): 0/5 | BR (beating rate), % change from baseline (1 µM, 24h): 68±21 % | Beating below threshold, number of observations/total well numbers (1 µM, 24h): 0/5 | Cessation of beating, number of observations/total well numbers (1 µM, 24h): 0/5 | EAD, number of observations/total well numbers (1 µM, 24h): 0/5 | Flat T-wave-like, number of observations/total well numbers (1 µM, 24h): 4/5 | Beating below threshold, number of observations/total well numbers (1 µM, 48h): 0/5 | Cessation of beating, number of observations/total well numbers (1 µM, 48h): 5/5 | EAD, number of observations/total well numbers (1 µM, 48h): 0/5 | Flat T-wave-like, number of observations/total well numbers (1 µM, 48h): 0/5 | Beating below threshold, number of observations/total well numbers (1 µM, 72h): 0/5 | Cessation of beating, number of observations/total well numbers (1 µM, 72h): 5/5 | EAD, number of observations/total well numbers (1 µM, 72h): 0/5 | Flat T-wave-like, number of observations/total well numbers (1 µM, 72h): 0/5 | Beating below threshold, number of observations/total well numbers (1 µM, 96h): 0/5 | Cessation of beating, number of observations/total well numbers (1 µM, 96h): 5/5 | EAD, number of observations/total well numbers (1 µM, 96h): 0/5 | Flat T-wave-like, number of observations/total well numbers (1 µM, 96h): 0/5 | time point from which cessation of beating occurred in all wells (3 µM): 24 h | Beating below threshold, number of observations/total well numbers (3 µM, 72h): 0/5 | Cessation of beating, number of observations/total well numbers (3 µM, 72h): 5/5 | EAD, number of observations/total well numbers (3 µM, 72h): 0/5 | Flat T-wave-like, number of observations/total well numbers (3 µM, 72h): 0/5 | Beating below threshold, number of observations/total well numbers (3 µM, 96h): 0/5 | Cessation of beating, number of observations/total well numbers (3 µM, 96h): 5/5 | EAD, number of observations/total well numbers (3 µM, 96h): 0/5 | Flat T-wave-like, number of observations/total well numbers (3 µM, 96h): 0/5 | BR (beating rate), % change from baseline (3 µM, 2h): 1±2% | Beating below threshold, number of observations/total well numbers (3 µM, 2h): 0/5 | Cessation of beating, number of observations/total well numbers (3 µM, 2h): 0/5 | EAD, number of observations/total well numbers (3 µM, 2h): 0/5 | FPD (field-potential duration), % change from baseline (3 µM, 2h): 3.9±2.4% | FPDc (field-potential duration corrected by beat-rate), % change from baseline (3 µM, 2h): 4.3±2.4% | Flat T-wave-like, number of observations/total well numbers (3 µM, 2h): 0/5 | BR (beating rate), % change from baseline (3 µM, 24h): 41±36 % | Beating below threshold, number of observations/total well numbers (3 µM, 24h): 0/5 | Cessation of beating, number of observations/total well numbers (3 µM, 24h): 1/5 | EAD, number of observations/total well numbers (3 µM, 24h): 0/5 | FPD (field-potential duration), % change from baseline (3 µM, 24h): -15.8±3.8 % | FPDc (field-potential duration corrected by beat-rate), % change from baseline (3 µM, 24h): -2.9±4.7 % | Flat T-wave-like, number of observations/total well numbers (3 µM, 24h): 2/5 | Beating below threshold, number of observations/total well numbers (3 µM, 48h): 0/5 | Cessation of beating, number of observations/total well numbers (3 µM, 48h): 5/5 | EAD, number of observations/total well numbers (3 µM, 48h): 0/5 | Flat T-wave-like, number of observations/total well numbers (3 µM, 48h): 0/5
SMILES: COc1cccc2c1C(=O)c1c(O)c3c(c(O)c1C2=O)C[C@@](O)(C(=O)CO)C[C@@H]3O[C@H]1C[C@H](N)[C@H](O)[C@H](C)O1 [Doxorubicin]
